In patent US7695930B2, “Method for the detection, identification and/or quantification of microoganisms with peptidase activity using phenoxazinone derivatives as enzyme substrates” (Biomerieux, priority 2003, dated 2010):

Assays:
Assay type in all cases: cell-based
[1] = test system: Pseudomonas aerigunosa (NCTC 10038); test: Alanine peptidase detection, substrates with one to three amino acids (Example 15); parameters: key to color of the colony: R=pink; RP=pale pink; I=colorless; conditions: 50 mg/l
Procedure: (§1) 1000 ml of Columbia medium was melted in a waterbath at 100° C. and autoclaved at 121° C. for 15 min. It was then cooled to 50° C. in a waterbath.
(§2) This medium was separated into 5 flasks of 200 ml, and then, added at 50° C., as substrates, was that of Example 2 for which A is: • medium 1: L-alanine (L-alanine-9-aminobenzo[a]phenoxazin-5-one or A-ABP), • medium 2: L-alanine-L-alanine (L-alanine-L-alanine-9-aminobenzo-[a]phenoxazin-5-one or AA-ABP), • medium 3: L-alanine-L-alanine-L-alanine (L-alanine-L-alanine-L-alanine-9-aminobenzo[a]phenoxazin-5-one or AAA-ABP), • medium 4: L-alanine-glycine (L-alanine-glycine-9-aminobenzo[a]phenoxazin-5-one or AG-ABP), and • medium 5: glycine-L-alanine (glycine-L-alanine-9-aminobenzo[a]phenoxazin-5-one or GA-ABP), each substrate being solubilized in DMSO and used at a final concentration of 50 mg/l.
(§3) The medium was then poured into Petri dishes.
(§4) Nine microorganism strains derived from the Applicant's collection, suspended in physiological saline, were seeded in colonies on the media prepared in point 15.1 above according to a multipoint inoculation in a proportion of 15 000 cfu/spot. The dishes were incubated at 37° C. for 48 hours. The colonies formed were examined visually after incubation for 24 and 48 hours.
(§5) The results are expressed in Tables 7 and 8 hereinafter according to the rules and the nomenclature stated in paragraph 11.3 and where R=pink, RP=pale pink and I=colorless.

[2] = test system: Micrococcus luteus (NCTC611); test: as above; parameters: key to color of the colony: R=pink; RP=pale pink; I=colorless; conditions: 50 mg/l
Procedure: as §1, §2, §3, §4, §5

[3] = test system: Escherichia coli (NCTC 10418); test: as above; parameters: key to color of the colony: R=pink; RP=pale pink; I=colorless; conditions: 50 mg/l
Procedure: as §1, §2, §3, §4, §5

[4] = test system: Staphylococcus epidermis (NCTC 11047); test: as above; parameters: key to color of the colony: R=pink; RP=pale pink; I=colorless; conditions: 50 mg/l
Procedure: as §1, §2, §3, §4, §5

[5] = test system: Staphylococcus aureus (NCTC 6571); test: as above; parameters: key to color of the colony: R=pink; RP=pale pink; I=colorless; conditions: 50 mg/l
Procedure: as §1, §2, §3, §4, §5

[6] = test system: Enterobacter clocae (NCTC 11936); test: as above; parameters: key to color of the colony: R=pink; RP=pale pink; I=colorless; conditions: 50 mg/l
Procedure: as §1, §2, §3, §4, §5

[7] = test system: Listeria monocytogenes (NCTC 11994); test: as above; parameters: key to color of the colony: R=pink; RP=pale pink; I=colorless; conditions: 50 mg/l
Procedure: as §1, §2, §3, §4, §5

Staphylococcus aureus = test: Leucine-peptidase detection on agar medium (Example 11); as to color of the colony: key: B corresponds to fluorescent blue; R corresponds to pink
Procedure: (§6) The detection medium was prepared by mixing 1.4 g of biogelytone (bioMérieux), 0.84 g of meat extract (bioMérieux), 2.24 g of NaCl (Merck), 280 μl of a solution of IPTG (isopropylthio-β-D-galactopyranoside, BIOSYNTH) in water (concentration 10 g/l) and 4.2 g of European agar (bioMérieux).
(§7) The substrate of the invention obtained in Example 2, in which the amino acid is leucine (leucine-9-aminobenzo[a]phenoxazin-5-one or Leu-ABP), or else a substrate of the prior art, which is leucine-aminomethylcoumarin (Leu-AMC, BACHEM), was then added in the following way: 280 ml of osmosed water were added to the medium, and the mixture was melted in a waterbath at 100° C. The mixture was autoclaved for 15 min at 121° C. and cooled to 50° C. in a waterbath.
as §3
(§8) The coloration of these colonies, the diffusion, and also the intensity of this coloration were noted.
(§9) The results were expressed as intensity of coloration using an arbitrary scale ranging from 0 to 4 as a basis and also as diffusion also using an arbitrary scale ranging from 0 to 4 as a basis.

Escherichia coli = test: as above
Procedure: as §6, §7, §3, §8, §9

Klebsellia pneumoniae = test: as above; as to color of the colony: key: B corresponds to fluorescent blue; R corresponds to pink
Procedure: as §6, §7, §3, §8, §9

Q: How did the “color of the colony” value ([1]; 24 h) turn out when “L-alanyl-9-aminobenzo[a]phenoxazin-5-one [Ala-ABP]” was run?
A: R

Q: And the growth diameter ([1]; 24 h)?
A: 3 mm

Q: And the “color of the colony” value ([1]; 48 h)?
A: R

Q: What about the growth diameter ([1]; 48 h) of the same substance?
A: 3 mm

Q: What about the growth diameter ([2]; 24 h) of the same substance?
A: 0 mm

Q: And the growth diameter ([2]; 48 h)?
A: 0 mm

Q: And the “color of the colony” value ([3]; 24 h)?
A: R

Q: And the growth diameter ([3]; 24 h)?
A: 3 mm

Q: And the “color of the colony” value ([3]; 48 h)?
A: R

Q: And the growth diameter ([3]; 48 h)?
A: 3 mm

Q: What about the growth diameter ([4]; 24 h) of the same substance?
A: 0 mm

Q: What about the growth diameter ([4]; 48 h) of the same substance?
A: 0 mm

Q: What about the growth diameter ([5]; 24 h) of the same substance?
A: 0 mm

Q: And the “color of the colony” value ([5]; 48 h)?
A: I

Q: What about the growth diameter ([5]; 48 h) of the same substance?
A: 2 mm

Q: What about the “color of the colony” value ([6]; 24 h) of the same substance?
A: R

Q: What about the growth diameter ([6]; 24 h) of the same substance?
A: 3 mm

Q: What about the “color of the colony” value ([6]; 48 h) of the same substance?
A: R

Q: And the growth diameter ([6]; 48 h)?
A: 3 mm

Q: What about the “color of the colony” value ([7]; 24 h) of the same substance?
A: I

Q: What about the growth diameter ([7]; 24 h) of the same substance?
A: 2 mm

Q: And the “color of the colony” value ([7]; 48 h)?
A: R

Q: What about the growth diameter ([7]; 48 h) of the same substance?
A: 2 mm

Q: How did the growth diameter (Staphylococcus aureus; 24 h, 25 mg/l) turn out when “leucine-9-aminobenzo[a]phenoxazin-5-one [Leu-ABP]” was run?
A: 0.3 mm

Q: What about the growth diameter (Staphylococcus aureus; 24 h, 50 mg/l) of the same substance?
A: 0.2 mm

Q: What about the “color of the colony” value (Staphylococcus aureus; 48 h, 25 mg/l) of the same substance?
A: R

Q: What about the growth diameter (Staphylococcus aureus; 48 h, 25 mg/l) of the same substance?
A: 0.7 mm

Q: And the “intensity of coloration, scale 0 to 4” value (Staphylococcus aureus; 48 h, 25 mg/l)?
A: 0.25

Q: What about the growth diameter (Staphylococcus aureus; 48 h, 50 mg/l) of the same substance?
A: 0.2 mm

Q: What about the “color of the colony” value (Escherichia coli; 24 h, 25 mg/l) of the same substance?
A: R

Q: What about the growth diameter (Escherichia coli; 24 h, 25 mg/l) of the same substance?
A: 1.8 mm

Q: And the “intensity of coloration, scale 0 to 4” value (Escherichia coli; 24 h, 25 mg/l)?
A: 0.0

Q: What about the “color of the colony” value (Escherichia coli; 24 h, 50 mg/l) of the same substance?
A: R

Q: What about the growth diameter (Escherichia coli; 24 h, 50 mg/l) of the same substance?
A: 1.7 mm

Q: What about the “intensity of coloration, scale 0 to 4” value (Escherichia coli; 24 h, 50 mg/l) of the same substance?
A: 0.5

Q: What about the “color of the colony” value (Escherichia coli; 24 h, 100 mg/l) of the same substance?
A: R

Q: What about the growth diameter (Escherichia coli; 24 h, 100 mg/l) of the same substance?
A: 1.8 mm

Q: And the “intensity of coloration, scale 0 to 4” value (Escherichia coli; 24 h, 100 mg/l)?
A: 0.0

Q: And the growth diameter (Escherichia coli; 24 h, 200 mg/l)?
A: 1.7 mm

Q: And the “color of the colony” value (Escherichia coli; 24 h, 400 mg/l)?
A: R

Q: What about the growth diameter (Escherichia coli; 24 h, 400 mg/l) of the same substance?
A: 1.8 mm

Q: And the “intensity of coloration, scale 0 to 4” value (Escherichia coli; 24 h, 400 mg/l)?
A: 0.75

Q: What about the “color of the colony” value (Escherichia coli; 48 h, 25 mg/l) of the same substance?
A: R

Q: What about the growth diameter (Escherichia coli; 48 h, 25 mg/l) of the same substance?
A: 1.8 mm

Q: What about the “intensity of coloration, scale 0 to 4” value (Escherichia coli; 48 h, 25 mg/l) of the same substance?
A: 0.25

Q: What about the “color of the colony” value (Escherichia coli; 48 h, 50 mg/l) of the same substance?
A: R

Q: What about the growth diameter (Escherichia coli; 48 h, 50 mg/l) of the same substance?
A: 1.8 mm

Q: What about the “intensity of coloration, scale 0 to 4” value (Escherichia coli; 48 h, 50 mg/l) of the same substance?
A: 0.5

Q: And the “color of the colony” value (Escherichia coli; 48 h, 100 mg/l)?
A: R

Q: What about the growth diameter (Escherichia coli; 48 h, 100 mg/l) of the same substance?
A: 1.8 mm

Q: And the growth diameter (Escherichia coli; 48 h, 200 mg/l)?
A: 1.7 mm

Q: What about the growth diameter (Escherichia coli; 48 h, 400 mg/l) of the same substance?
A: 1.8 mm

Q: And the “color of the colony” value (Klebsellia pneumoniae; 24 h, 25 mg/l)?
A: R

Q: What about the growth diameter (Klebsellia pneumoniae; 24 h, 25 mg/l) of the same substance?
A: 1.8 mm

Q: And the “intensity of coloration, scale 0 to 4” value (Klebsellia pneumoniae; 24 h, 25 mg/l)?
A: 1.5

Q: And the “color of the colony” value (Klebsellia pneumoniae; 24 h, 50 mg/l)?
A: R

Q: And the growth diameter (Klebsellia pneumoniae; 24 h, 50 mg/l)?
A: 1.7 mm

Q: And the “intensity of coloration, scale 0 to 4” value (Klebsellia pneumoniae; 24 h, 50 mg/l)?
A: 1.5

Q: What about the “color of the colony” value (Klebsellia pneumoniae; 24 h, 100 mg/l) of the same substance?
A: R

Q: And the growth diameter (Klebsellia pneumoniae; 24 h, 100 mg/l)?
A: 1.7 mm

Q: And the “intensity of coloration, scale 0 to 4” value (Klebsellia pneumoniae; 24 h, 100 mg/l)?
A: 1.5

Q: What about the “color of the colony” value (Klebsellia pneumoniae; 24 h, 200 mg/l) of the same substance?
A: R

Q: What about the growth diameter (Klebsellia pneumoniae; 24 h, 200 mg/l) of the same substance?
A: 1.7 mm

Q: What about the “intensity of coloration, scale 0 to 4” value (Klebsellia pneumoniae; 24 h, 200 mg/l) of the same substance?
A: 2

Q: And the “color of the colony” value (Klebsellia pneumoniae; 24 h, 400 mg/l)?
A: R

Q: What about the growth diameter (Klebsellia pneumoniae; 24 h, 400 mg/l) of the same substance?
A: 1.7 mm

Q: And the “intensity of coloration, scale 0 to 4” value (Klebsellia pneumoniae; 24 h, 400 mg/l)?
A: 2.5

Q: What about the “color of the colony” value (Klebsellia pneumoniae; 48 h, 25 mg/l) of the same substance?
A: R

Q: What about the growth diameter (Klebsellia pneumoniae; 48 h, 25 mg/l) of the same substance?
A: 1.8 mm

Q: And the “intensity of coloration, scale 0 to 4” value (Klebsellia pneumoniae; 48 h, 25 mg/l)?
A: 2

Q: What about the “color of the colony” value (Klebsellia pneumoniae; 48 h, 50 mg/l) of the same substance?
A: R

Q: And the growth diameter (Klebsellia pneumoniae; 48 h, 50 mg/l)?
A: 1.7 mm

Q: And the “intensity of coloration, scale 0 to 4” value (Klebsellia pneumoniae; 48 h, 50 mg/l)?
A: 2.5

Q: What about the “color of the colony” value (Klebsellia pneumoniae; 48 h, 100 mg/l) of the same substance?
A: R

Q: And the growth diameter (Klebsellia pneumoniae; 48 h, 100 mg/l)?
A: 1.7 mm

Q: What about the “intensity of coloration, scale 0 to 4” value (Klebsellia pneumoniae; 48 h, 100 mg/l) of the same substance?
A: 1.5

Q: What about the “color of the colony” value (Klebsellia pneumoniae; 48 h, 200 mg/l) of the same substance?
A: R

Q: What about the growth diameter (Klebsellia pneumoniae; 48 h, 200 mg/l) of the same substance?
A: 1.7 mm

Q: And the “intensity of coloration, scale 0 to 4” value (Klebsellia pneumoniae; 48 h, 200 mg/l)?
A: 1

Q: And the “color of the colony” value (Klebsellia pneumoniae; 48 h, 400 mg/l)?
A: R

Q: What about the growth diameter (Klebsellia pneumoniae; 48 h, 400 mg/l) of the same substance?
A: 1.8 mm

Q: What about the “intensity of coloration, scale 0 to 4” value (Klebsellia pneumoniae; 48 h, 400 mg/l) of the same substance?
A: 1
